Patent publication EP0305968A2, “Compositions against protozoal diseases” (YEDA RESEARCH AND DEVELOPMENT COMPANY LIMITED, priority 1987, dated 1989)
≈ marks a conversion by molar mass, not a printed value.

System: Entamoeba histolytica
Assay: Killing of Entamoeba histolytica trophozoites in culture, with particle ingestion
Type: cell-based
Conditions: drug alone
Excerpt: The particles were diol subsituted silica or aluminum- silicate particles Fig. 1), in which aldehyde groups can be formed by pretreatment with periodate that oxidizes vicinal hydroxyl groups and yields aldehyde groups. […] Schiff base was then interacted with sodium bisulfite to stabilize the bond (Fig. 2). […] One mg of dry weight silica particles contains 10⁷-10⁹ particles depending on the source.

Structure (SMILES): Cc1ncc([N+](=O)[O-])n1CCO [Metronidazole]
- EC95 (Entamoeba histolytica, over 24 h, read-out: concentration required to kill more than 95% of the trophozoites): 1 to 5 µg/mL (≈ 5.84 to 29.2 µM)
- time required to kill more than 95% of the trophozoites (1-5 µg/ml): over 24 h
